Molecular target: Gastrin/cholecystokinin type B receptor (Cavia porcellus)
Assay: In vitro affinity to the cholecystokinin type B receptor in guinea pig cortex assayed using [125I]BH-CCK-8 as radioligand

| SMILES | IC50 [nM] |
| --- | --- |
| Cc1ccc2c(c1)[C@@H](c1ccccc1)C[C@@H](NC(=O)Nc1cccc(Cl)c1)C(=O)N2CC(=O)NC(C)(C)C [N-tert-Butyl-2-{(3R,5R)-3-[3-(3-chloro-phenyl)-ureido]-7-methyl-2-oxo-5-phenyl-2,3,4,5-tetrahydro-benzo[b]azepin-1-yl}-acetamide] | 32 |
| Cc1ccccc1NC(=O)N[C@@H]1C[C@H](c2ccccc2)c2ccccc2N(CC(=O)NC(C)(C)C)C1=O [N-tert-Butyl-2-[(3R,5R)-2-oxo-5-phenyl-3-(3-o-tolyl-ureido)-2,3,4,5-tetrahydro-benzo[b]azepin-1-yl]-acetamide] | 55 |
| CCC(C)(C)NC(=O)CN1C(=O)[C@H](NC(=O)Nc2cccc(Cl)c2)C[C@H](c2ccccc2)c2ccccc21 [2-{(3R,5R)-3-[3-(3-Chloro-phenyl)-ureido]-2-oxo-5-phenyl-2,3,4,5-tetrahydro-benzo[b]azepin-1-yl}-N-(1,1-dimethyl-propyl)-acetamide] | 7.6 |
| CC(C)(C)NC(=O)CN1C(=O)[C@H](NC(=O)Nc2cccc(Cl)c2)C[C@H](c2ccccc2)c2cc(Cl)ccc21 [N-tert-Butyl-2-{(3R,5R)-7-chloro-3-[3-(3-chloro-phenyl)-ureido]-2-oxo-5-phenyl-2,3,4,5-tetrahydro-benzo[b]azepin-1-yl}-acetamide] | 24 |
| Cc1cccc(NC(=O)N[C@@H]2C[C@H](c3ccccc3)c3ccccc3N(CC(=O)NC(C)(C)C)C2=O)c1 [N-tert-Butyl-2-[(3R,5R)-2-oxo-5-phenyl-3-(3-m-tolyl-ureido)-2,3,4,5-tetrahydro-benzo[b]azepin-1-yl]-acetamide] | 10.1 |
| Cc1ccc(NC(=O)N[C@@H]2C[C@H](c3ccccc3)c3ccccc3N(CC(=O)NC(C)(C)C)C2=O)cc1 [N-tert-Butyl-2-[(3R,5R)-2-oxo-5-phenyl-3-(3-p-tolyl-ureido)-2,3,4,5-tetrahydro-benzo[b]azepin-1-yl]-acetamide] | 35 |
| COc1cccc(NC(=O)N[C@@H]2C[C@H](c3ccccc3)c3ccccc3N(CC(=O)NC(C)(C)C)C2=O)c1 [N-tert-Butyl-2-{(3R,5R)-3-[3-(3-methoxy-phenyl)-ureido]-2-oxo-5-phenyl-2,3,4,5-tetrahydro-benzo[b]azepin-1-yl}-acetamide] | 30.4 |

Now those with a lower IC50, led by results:

| IC50 [nM] | SMILES |
| --- | --- |
| 4 | CC(C)(C)NC(=O)CN1C(=O)[C@H](NC(=O)Nc2cccc(Cl)c2)C[C@H](c2cccc(Cl)c2)c2ccccc21 [N-tert-Butyl-2-{(3R,5R)-5-(3-chloro-phenyl)-3-[3-(3-chloro-phenyl)-ureido]-2-oxo-2,3,4,5-tetrahydro-benzo[b]azepin-1-yl}-acetamide] |
| 3.4 | Cc1ccc2c(c1)N(CC(=O)NC(C)(C)C)C(=O)[C@H](NC(=O)Nc1cccc(Cl)c1)C[C@@H]2C(C)C [N-tert-Butyl-2-{(3R,5R)-3-[3-(3-chloro-phenyl)-ureido]-5-isopropyl-8-methyl-2-oxo-2,3,4,5-tetrahydro-benzo[b]azepin-1-yl}-acetamide] |
| 2.5 | Cc1cccc(NC(=O)N[C@@H]2C[C@H](c3ccccc3)c3ccccc3N(CC(=O)OC(C)(C)C)C2=O)c1 [[(3R,5R)-2-Oxo-5-phenyl-3-(3-m-tolyl-ureido)-2,3,4,5-tetrahydro-benzo[b]azepin-1-yl]-acetic acid tert-butyl ester] |
| 2.2 | Cc1ccc2c(c1)N(CC(=O)OC(C)(C)C)C(=O)[C@H](NC(=O)Nc1cccc(Cl)c1)C[C@@H]2c1ccccc1 [{(3R,5R)-3-[3-(3-Chloro-phenyl)-ureido]-8-methyl-2-oxo-5-phenyl-2,3,4,5-tetrahydro-benzo[b]azepin-1-yl}-acetic acid tert-butyl ester] |
| 1.5 | CN(C(=O)CN1C(=O)[C@H](NC(=O)Nc2cccc(Cl)c2)C[C@H](c2ccccc2)c2ccccc21)C(C)(C)C [N-tert-Butyl-2-{(3R,5R)-3-[3-(3-chloro-phenyl)-ureido]-2-oxo-5-phenyl-2,3,4,5-tetrahydro-benzo[b]azepin-1-yl}-N-methyl-acetamide] |
| 1.4 | Cc1ccc2c(c1)N(CC(=O)NC(C)(C)C)C(=O)[C@H](NC(=O)Nc1cccc(Cl)c1)C[C@@H]2Cc1ccccc1 [2-{(3R,5S)-5-Benzyl-3-[3-(3-chloro-phenyl)-ureido]-8-methyl-2-oxo-2,3,4,5-tetrahydro-benzo[b]azepin-1-yl}-N-tert-butyl-acetamide] |
| 0.6 | Cc1ccc2c(c1)N(CC(=O)NC(C)(C)C)C(=O)[C@H](NC(=O)Nc1cccc(Cl)c1)C[C@@H]2C1CCCCC1 [N-tert-Butyl-2-{(3R,5R)-3-[3-(3-chloro-phenyl)-ureido]-5-cyclohexyl-8-methyl-2-oxo-2,3,4,5-tetrahydro-benzo[b]azepin-1-yl}-acetamide] |
